One data set concerns the target T1, housefly GABA receptor (Musca domestica, UniProt Q75NA5).
T1 sequence (Q75NA5 30-576): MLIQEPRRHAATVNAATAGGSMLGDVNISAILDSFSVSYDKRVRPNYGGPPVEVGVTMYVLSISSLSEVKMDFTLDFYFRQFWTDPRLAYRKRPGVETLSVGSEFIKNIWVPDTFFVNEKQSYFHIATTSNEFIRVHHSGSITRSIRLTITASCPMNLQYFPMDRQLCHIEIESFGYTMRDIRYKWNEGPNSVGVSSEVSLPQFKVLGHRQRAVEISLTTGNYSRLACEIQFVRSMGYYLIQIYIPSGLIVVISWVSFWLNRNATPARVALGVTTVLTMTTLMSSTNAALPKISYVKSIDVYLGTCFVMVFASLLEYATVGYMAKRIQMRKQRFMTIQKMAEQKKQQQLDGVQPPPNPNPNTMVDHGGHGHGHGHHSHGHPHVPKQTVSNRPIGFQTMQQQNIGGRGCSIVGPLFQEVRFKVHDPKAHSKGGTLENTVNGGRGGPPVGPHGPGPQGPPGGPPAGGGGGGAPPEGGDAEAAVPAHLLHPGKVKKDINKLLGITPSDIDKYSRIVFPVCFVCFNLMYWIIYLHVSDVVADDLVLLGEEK
As to the kind of experiment: Displacement of 3H-EBOB from the housefly GABA receptor. The data set is classed as binding. As for the experimental part:
(§1) Compound 1 binds to the housefly GABA receptor with high affinity (IC50=8 nM, for displacement of 2.6 nM of ^3H-EBOB) and can be radiolabeled at high specific activity (>70 Ci/mmol). These are two highly desirable requirements for a new radioligand.
For orientation: Displacement assays read how much labelled ligand stays bound in the presence of the test substance.

A short description of data set [1]: Chemical stability of the radioligand. The class given is physicochemical. The settings on record: avoids periodic purification steps. The method, then: as §1

For orientation: IC50 means the concentration at which inhibition is half-maximal. A high value points to a need for much substance.

As for `[3H]C([3H])([3H])Sc1nn(-c2c(Cl)cc(C(F)(F)F)cc2Cl)c(N)c1C#N` [Compound 1, 4-cyano-1-(2,6-dichloro-4-trifluorophenyl)-3-[^3H3]methylthiopyrazol-5-ylamine], on housefly GABA receptor, the IC50 was determined as 8 nM. In addition, the chemical stability entry in data set [1] was “chemically stable”.

(Values after patent US6409988B1, “Radiolabeled 1-aryl pyrazoles, the synthesis thereof and the use thereof as pest GABA receptor ligands” (3-Dimensional Pharmaceuticals, Inc., priority 1999, dated 2002).)
